What all share (type): biochemical
The target of one experiment is PI3Kγ (Homo sapiens (Human), UniProt P48736). Briefly: TR-FRET enzymatic assay of PI3K isoforms (PI3Kγ). The conditions noted are these: TR-FRET, 2×Km ATP, 2 μM PIP2, PI3Kγ at 2 nM, incubated for 30 minutes at 25° C.; read-out: γ IC50. The procedure:
(§1) The compounds of formula (I) were characterized for their enzymatic activity against the PI3K isoforms. Certain compounds of the present application, including certain compounds of formula (II) and (III) were also characterized for their enzymatic activity against PI3K isoforms. The activities were measured using a time-resolved fluorescence resonance energy transfer (TR-FRET) assay.
In general terms: Time-resolved FRET reads energy transfer from a long-lived donor to a nearby acceptor.

Another experiment concerns the target PI3Kβ (Homo sapiens (Human), UniProt P42338). In words: TR-FRET enzymatic assay of PI3K isoforms (PI3Kβ). The conditions noted are these: TR-FRET, 2×Km ATP, 2 μM PIP2, incubated for 30 minutes at 25° C.; read-out: β IC50. How it is done: as §1
The target in another experiment is PI3Kδ (Homo sapiens (Human), UniProt O00329). In words: TR-FRET enzymatic assay of PI3K isoforms (PI3Kδ). The conditions noted are these: 2×Km ATP, 2 μM PIP2, incubated for 30 minutes at 25° C., read-out: δ IC50. The procedure: as §1

Structures can show the parent of a compound that is named as a salt.

Chain of PI3Kγ (P48736 whole entry, canonical isoform): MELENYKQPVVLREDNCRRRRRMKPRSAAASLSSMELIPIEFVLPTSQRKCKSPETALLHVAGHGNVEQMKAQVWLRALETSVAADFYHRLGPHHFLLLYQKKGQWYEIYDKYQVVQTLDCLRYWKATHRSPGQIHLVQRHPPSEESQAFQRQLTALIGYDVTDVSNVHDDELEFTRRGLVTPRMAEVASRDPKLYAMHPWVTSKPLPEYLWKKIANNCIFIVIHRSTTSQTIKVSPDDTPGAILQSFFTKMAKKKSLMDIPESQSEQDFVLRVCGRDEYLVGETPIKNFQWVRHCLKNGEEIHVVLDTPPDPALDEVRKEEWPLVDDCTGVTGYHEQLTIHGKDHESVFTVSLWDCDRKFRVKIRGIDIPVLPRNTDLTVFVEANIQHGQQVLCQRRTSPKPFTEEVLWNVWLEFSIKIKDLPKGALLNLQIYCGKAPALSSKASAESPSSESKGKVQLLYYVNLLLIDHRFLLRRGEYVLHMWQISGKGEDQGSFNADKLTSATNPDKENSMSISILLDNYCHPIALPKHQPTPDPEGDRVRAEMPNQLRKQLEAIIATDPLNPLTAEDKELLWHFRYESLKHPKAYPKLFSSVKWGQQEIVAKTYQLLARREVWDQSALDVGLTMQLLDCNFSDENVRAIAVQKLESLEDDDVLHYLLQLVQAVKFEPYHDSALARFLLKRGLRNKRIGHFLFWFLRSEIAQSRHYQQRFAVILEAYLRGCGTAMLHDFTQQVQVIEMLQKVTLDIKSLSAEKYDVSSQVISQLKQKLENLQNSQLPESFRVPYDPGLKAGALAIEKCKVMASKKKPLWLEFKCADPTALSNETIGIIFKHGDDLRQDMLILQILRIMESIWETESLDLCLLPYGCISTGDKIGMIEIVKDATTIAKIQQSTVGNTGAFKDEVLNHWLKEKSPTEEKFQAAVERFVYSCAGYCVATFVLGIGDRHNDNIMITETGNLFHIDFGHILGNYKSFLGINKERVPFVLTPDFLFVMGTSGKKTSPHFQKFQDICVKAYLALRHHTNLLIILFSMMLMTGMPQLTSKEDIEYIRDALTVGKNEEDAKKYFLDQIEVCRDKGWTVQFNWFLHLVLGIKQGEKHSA
Chain of PI3Kγ (Q8WYR1 whole entry partner, canonical isoform): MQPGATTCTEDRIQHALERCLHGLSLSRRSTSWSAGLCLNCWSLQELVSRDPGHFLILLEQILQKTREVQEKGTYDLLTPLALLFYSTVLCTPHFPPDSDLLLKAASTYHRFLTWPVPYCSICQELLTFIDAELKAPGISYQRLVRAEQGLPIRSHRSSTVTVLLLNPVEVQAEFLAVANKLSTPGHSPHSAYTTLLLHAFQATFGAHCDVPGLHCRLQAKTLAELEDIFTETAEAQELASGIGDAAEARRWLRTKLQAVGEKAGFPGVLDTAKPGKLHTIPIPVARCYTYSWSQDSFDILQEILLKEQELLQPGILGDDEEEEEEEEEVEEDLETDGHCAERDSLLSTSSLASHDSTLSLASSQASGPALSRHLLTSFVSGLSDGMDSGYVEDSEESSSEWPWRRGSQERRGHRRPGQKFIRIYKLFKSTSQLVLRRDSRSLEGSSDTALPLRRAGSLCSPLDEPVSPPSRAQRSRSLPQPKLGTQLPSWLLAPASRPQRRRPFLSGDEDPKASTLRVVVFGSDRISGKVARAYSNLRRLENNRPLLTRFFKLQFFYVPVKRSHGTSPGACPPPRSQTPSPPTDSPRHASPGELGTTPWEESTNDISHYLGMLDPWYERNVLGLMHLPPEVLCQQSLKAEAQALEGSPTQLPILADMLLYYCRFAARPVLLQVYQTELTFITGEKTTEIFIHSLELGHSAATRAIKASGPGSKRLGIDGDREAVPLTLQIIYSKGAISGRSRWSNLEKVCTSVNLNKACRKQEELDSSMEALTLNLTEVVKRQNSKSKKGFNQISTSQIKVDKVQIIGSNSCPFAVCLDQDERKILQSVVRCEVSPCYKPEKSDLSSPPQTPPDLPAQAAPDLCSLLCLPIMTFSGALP
Chain of PI3Kδ (O00329 whole entry, canonical isoform): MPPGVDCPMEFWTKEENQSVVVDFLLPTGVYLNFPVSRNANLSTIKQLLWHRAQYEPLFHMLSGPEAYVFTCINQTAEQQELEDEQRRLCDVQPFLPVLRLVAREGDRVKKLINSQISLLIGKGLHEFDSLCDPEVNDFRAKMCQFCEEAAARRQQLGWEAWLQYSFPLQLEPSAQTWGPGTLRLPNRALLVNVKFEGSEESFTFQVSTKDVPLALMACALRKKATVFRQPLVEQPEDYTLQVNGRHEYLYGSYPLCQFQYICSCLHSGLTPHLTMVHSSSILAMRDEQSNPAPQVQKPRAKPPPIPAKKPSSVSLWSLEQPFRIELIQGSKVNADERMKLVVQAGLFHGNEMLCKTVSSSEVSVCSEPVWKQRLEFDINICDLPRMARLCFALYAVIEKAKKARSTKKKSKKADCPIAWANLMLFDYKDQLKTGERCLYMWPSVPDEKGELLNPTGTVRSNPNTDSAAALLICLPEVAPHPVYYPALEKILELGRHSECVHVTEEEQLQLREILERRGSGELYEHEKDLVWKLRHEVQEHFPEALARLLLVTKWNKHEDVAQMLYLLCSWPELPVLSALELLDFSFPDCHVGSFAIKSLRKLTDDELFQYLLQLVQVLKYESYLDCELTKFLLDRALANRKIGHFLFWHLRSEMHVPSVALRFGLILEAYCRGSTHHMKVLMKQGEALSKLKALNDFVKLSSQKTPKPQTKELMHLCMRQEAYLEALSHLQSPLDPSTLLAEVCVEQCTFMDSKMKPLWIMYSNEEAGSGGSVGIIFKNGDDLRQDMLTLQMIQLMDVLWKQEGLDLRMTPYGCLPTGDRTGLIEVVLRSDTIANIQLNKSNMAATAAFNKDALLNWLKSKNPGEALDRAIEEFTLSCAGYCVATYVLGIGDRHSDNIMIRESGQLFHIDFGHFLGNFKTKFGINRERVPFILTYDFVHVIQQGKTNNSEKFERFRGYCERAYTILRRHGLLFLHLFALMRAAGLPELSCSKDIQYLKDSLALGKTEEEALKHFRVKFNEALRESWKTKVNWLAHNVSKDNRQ
Chain of PI3Kδ (P27986 whole entry partner, canonical isoform): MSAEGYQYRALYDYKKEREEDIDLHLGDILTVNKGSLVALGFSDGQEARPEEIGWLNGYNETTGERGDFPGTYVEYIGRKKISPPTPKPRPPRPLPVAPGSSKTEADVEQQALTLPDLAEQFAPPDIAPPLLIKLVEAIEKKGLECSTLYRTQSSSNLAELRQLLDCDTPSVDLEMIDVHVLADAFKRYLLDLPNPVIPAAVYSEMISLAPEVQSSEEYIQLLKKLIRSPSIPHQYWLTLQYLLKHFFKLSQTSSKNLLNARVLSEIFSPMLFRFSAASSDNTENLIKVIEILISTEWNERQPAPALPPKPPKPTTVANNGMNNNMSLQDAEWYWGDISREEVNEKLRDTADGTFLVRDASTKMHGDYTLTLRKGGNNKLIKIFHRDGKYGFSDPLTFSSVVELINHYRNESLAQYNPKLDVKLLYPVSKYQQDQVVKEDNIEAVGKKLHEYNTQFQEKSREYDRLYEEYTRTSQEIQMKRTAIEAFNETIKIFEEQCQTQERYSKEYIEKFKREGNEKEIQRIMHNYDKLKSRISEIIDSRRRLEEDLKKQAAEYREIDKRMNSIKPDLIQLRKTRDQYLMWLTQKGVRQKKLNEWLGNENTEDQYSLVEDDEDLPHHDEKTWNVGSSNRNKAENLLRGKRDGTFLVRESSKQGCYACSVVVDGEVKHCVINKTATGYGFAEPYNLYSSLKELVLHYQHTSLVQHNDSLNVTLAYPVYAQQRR
Chain of PI3Kβ (P42338 whole entry, canonical isoform): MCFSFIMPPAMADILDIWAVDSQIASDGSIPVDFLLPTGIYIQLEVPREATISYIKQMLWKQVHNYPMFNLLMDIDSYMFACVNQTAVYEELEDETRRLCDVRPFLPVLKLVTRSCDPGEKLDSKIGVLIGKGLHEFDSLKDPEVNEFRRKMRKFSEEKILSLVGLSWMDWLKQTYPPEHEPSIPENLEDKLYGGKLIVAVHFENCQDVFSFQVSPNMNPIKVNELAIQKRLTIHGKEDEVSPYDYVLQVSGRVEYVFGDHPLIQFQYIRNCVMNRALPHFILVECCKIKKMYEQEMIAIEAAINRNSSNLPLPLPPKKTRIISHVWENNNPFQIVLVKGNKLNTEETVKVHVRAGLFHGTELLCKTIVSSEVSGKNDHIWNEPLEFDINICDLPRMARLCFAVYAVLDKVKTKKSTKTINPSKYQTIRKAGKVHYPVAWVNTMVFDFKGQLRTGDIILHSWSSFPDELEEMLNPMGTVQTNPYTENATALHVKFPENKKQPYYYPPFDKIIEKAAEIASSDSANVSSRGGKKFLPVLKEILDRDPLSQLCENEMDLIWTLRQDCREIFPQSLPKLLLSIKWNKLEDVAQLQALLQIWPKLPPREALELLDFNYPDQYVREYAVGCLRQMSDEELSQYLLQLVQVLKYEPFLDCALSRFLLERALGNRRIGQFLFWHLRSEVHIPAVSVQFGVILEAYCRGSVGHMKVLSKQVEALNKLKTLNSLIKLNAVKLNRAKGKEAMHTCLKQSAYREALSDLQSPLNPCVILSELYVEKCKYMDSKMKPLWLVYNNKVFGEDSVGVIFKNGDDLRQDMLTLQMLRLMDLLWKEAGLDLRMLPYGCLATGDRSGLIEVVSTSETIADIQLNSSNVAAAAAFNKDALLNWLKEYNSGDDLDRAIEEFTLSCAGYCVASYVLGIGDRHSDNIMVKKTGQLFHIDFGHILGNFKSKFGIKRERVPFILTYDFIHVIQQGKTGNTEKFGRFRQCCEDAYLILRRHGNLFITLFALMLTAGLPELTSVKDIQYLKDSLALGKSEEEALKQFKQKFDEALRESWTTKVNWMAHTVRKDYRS
Chain of PI3Kβ (P27986 whole entry partner, canonical isoform): as the sequence (P27986 whole entry partner, canonical isoform) above

Usually IC50 stands for the concentration that inhibits the measured activity by half. Regarding `CCNC(=O)Nc1cccc(-n2c([C@H](C)Nc3ncnc(N)c3C#N)nc3ccc(F)cc3c2=O)c1` [Compound 53, (S)-1-(3-(2-(1-((6-amino-5-cyanopyrimidin-4-yl)amino)ethyl)-6-fluoro-4-oxoquinazolin-3(4H)-yl)phenyl)-3-ethylurea], the 50% inhibitory concentration (IC50) at PI3Kγ was > 10 µM; at PI3Kβ, 550 nM; on PI3Kδ it was 75 nM.

As to `CCNC(=O)Nc1cccc(-n2c([C@H](C)Nc3ncnc(N)c3C#N)nc3cc(F)ccc3c2=O)c1` [Compound 54, (S)-1-(3-(2-(1-((6-amino-5-cyanopyrimidin-4-yl)amino)ethyl)-7-fluoro-4-oxoquinazolin-3(4H)-yl)phenyl)-3-ethylurea], the IC50 was > 10 µM on PI3Kγ, 2600 nM at PI3Kβ and 250 nM at PI3Kδ.

Take `CCNC(=O)Nc1cccc(-n2c([C@H](C)Nc3ncnc(N)c3C#N)nc3cccc(C)c3c2=O)c1` [Compound 55, (S)-1-(3-(2-(1-((6-amino-5-cyanopyrimidin-4-yl)amino)ethyl)-5-methyl-4-oxoquinazolin-3(4H)-yl)phenyl)-3-ethylurea]: the figures for the IC50 on PI3Kγ, on PI3Kβ and at PI3Kδ were 1.8 µM, 12 nM and 3 nM, respectively.

As to `CCNC(=O)Nc1cccc(-n2c([C@H](C)Nc3ncnc(N)c3C#N)nc3cccc(OC)c3c2=O)c1` [Compound 56, (S)-1-(3-(2-(1-((6-amino-5-cyanopyrimidin-4-yl)amino)ethyl)-5-methoxy-4-oxoquinazolin-3(4H)-yl)phenyl)-3-ethylurea], the IC50 on PI3Kγ is > 10 µM; on PI3Kβ it was 6600 nM; at PI3Kδ, 880 nM.

`CCNC(=O)Nc1cccc(-n2c([C@H](C)N(C)c3ncnc(N)c3C#N)nc3cccc(Cl)c3c2=O)c1` [Compound 57, (S)-1-(3-(2-(1-((6-amino-5-cyanopyrimidin-4-yl)(methyl)amino)ethyl)-5-chloro-4-oxoquinazolin-3(4H)-yl)phenyl)-3-ethylurea]: the IC50 at PI3Kγ was > 10 µM; on PI3Kβ it was 580 nM; on PI3Kδ, 610 nM.

For `CCNC(=O)Nc1cccc(-n2c([C@H](C)Nc3ncnc(N)c3C#N)nc3c(F)ccc(Cl)c3c2=O)c1` [Compound 62, (S)-1-(3-(2-(1-((6-amino-5-cyanopyrimidin-4-yl)amino)ethyl)-5-chloro-8-fluoro-4-oxoquinazolin-3(4H)-yl)phenyl)-3-ethylurea], the figures for the half-inhibitory concentration (IC50) on PI3Kγ, at PI3Kβ and at PI3Kδ were 3.8 µM, 7 nM and 4 nM, respectively.

For the compound `C[C@H](Nc1ncnc(N)c1C#N)c1nc2c(Cl)ccc(Cl)c2c(=O)n1-c1cccc(NC(=O)NCCCO)c1` [Compound 64, (S)-1-(3-(2-(1-((6-amino-5-cyanopyrimidin-4-yl)amino)ethyl)-5,8-dichloro-4-oxoquinazolin-3(4H)-yl)phenyl)-3-(3-hydroxypropyl)urea], the IC50 at PI3Kγ is > 10 µM; on PI3Kβ, 7 nM; on PI3Kδ, 8 nM.

Regarding `C[C@H](Nc1ncnc(N)c1C#N)c1nc2c(Cl)cccc2c(=O)n1-c1cccc(NC(=O)NCCCO)c1` [Compound 65, (S)-1-(3-(2-(1-((6-amino-5-cyanopyrimidin-4-yl)amino)ethyl)-8-chloro-4-oxoquinazolin-3(4H)-yl)phenyl)-3-(3-hydroxypropyl)urea], the IC50 was > 10 µM at PI3Kγ, 220 nM at PI3Kβ and 82 nM at PI3Kδ.

Take `C[C@H](Nc1ncnc(N)c1C#N)c1nc2c(F)ccc(Cl)c2c(=O)n1-c1cccc(NC(=O)NCCCO)c1` [Compound 66, (S)-1-(3-(2-(1-((6-amino-5-cyanopyrimidin-4-yl)amino)ethyl)-5-chloro-8-fluoro-4-oxoquinazolin-3(4H)-yl)phenyl)-3-(3-hydroxypropyl)urea]: the IC50 stood at 3.7 µM on PI3Kγ, 4 nM at PI3Kβ and 9 nM on PI3Kδ.

`C[C@H](Nc1ncnc(N)c1C#N)c1nc2c(F)ccc(F)c2c(=O)n1-c1cccc(NC(=O)NCCCO)c1` [Compound 67, (S)-1-(3-(2-(1-((6-amino-5-cyanopyrimidin-4-yl)amino)ethyl)-5,8-difluoro-4-oxoquinazolin-3(4H)-yl)phenyl)-3-(3-hydroxypropyl)urea]: the IC50 was > 10 µM on PI3Kγ, 38 nM on PI3Kβ and 98 nM on PI3Kδ.

Consider `C[C@H](Nc1ncnc(N)c1C#N)c1nc2c(F)cccc2c(=O)n1-c1cccc(NC(=O)NCCCO)c1` [Compound 68, (S)-1-(3-(2-(1-((6-amino-5-cyanopyrimidin-4-yl)amino)ethyl)-8-fluoro-4-oxoquinazolin-3(4H)-yl)phenyl)-3-(3-hydroxypropyl)urea], for which the figures for the IC50 at PI3Kγ, at PI3Kβ and on PI3Kδ were > 10 µM, 220 nM and 130 nM, respectively.

In the case of `CCNC(=O)Nc1cccc(-n2c([C@H](C)Nc3ncnc(N)c3C#N)nc3cccc(C#N)c3c2=O)c1` [Compound 69, (S)-1-(3-(2-(1-((6-amino-5-cyanopyrimidin-4-yl)amino)ethyl)-5-cyano-4-oxoquinazolin-3(4H)-yl)phenyl)-3-ethylurea 2,2,2-trifluoroacetic acid salt], the IC50 at PI3Kγ worked out at 5.2 µM; at PI3Kβ it was 110 nM; at PI3Kδ, 8 nM.

Turning to `CCNC(=O)Nc1cccc(-n2c([C@H](C)Oc3ncnc(N)c3C#N)nc3cccc(Cl)c3c2=O)c1` [Compound 70, (S)-1-(3-(2-(1-((6-amino-5-cyanopyrimidin-4-yl)oxy)ethyl)-5-chloro-4-oxoquinazolin-3(4H)-yl)phenyl)-3-ethylurea], the values for the IC50 on PI3Kγ, on PI3Kβ and at PI3Kδ were 1.5 µM, 12 nM and 2 nM, respectively.

Turning to `CCNC(=O)Nc1cccc(-n2c([C@H](C)Nc3ncnc4scnc34)nc3cccc(Cl)c3c2=O)c1` [Compound 72, (S)-1-(3-(5-chloro-4-oxo-2-(1-(thiazolo[5,4-d]pyrimidin-7-ylamino)ethyl)quinazolin-3(4H)-yl)phenyl)-3-ethylurea], the IC50 at PI3Kγ was found to be 1.3 µM; on PI3Kβ it was 4 nM; on PI3Kδ, 5 nM.

In the case of `CCNC(=O)Nc1cccc(-n2c([C@@H]3C[C@H](F)CN3c3ncnc(N)c3C#N)nc3cccc(Cl)c3c2=O)c1` [Compound 73, 1-(3-(2-((2S,4S)-1-(6-amino-5-cyanopyrimidin-4-yl)-4-fluoropyrrolidin-2-yl)-5-chloro-4-oxoquinazolin-3(4H)-yl)phenyl)-3-ethylurea], the IC50 is 5.6 µM on PI3Kγ, 38 nM at PI3Kβ and 17 nM on PI3Kδ.

For `C[C@H](Nc1ncnc(N)c1C#N)c1nc2cccc(Cl)c2c(=O)n1-c1cccc(NC(=O)NC2(C(F)(F)F)CC2)c1` [Compound 75, (S)-1-(3-(2-(1-((6-amino-5-cyanopyrimidin-4-yl)amino)ethyl)-5-chloro-4-oxoquinazolin-3(4H)-yl)phenyl)-3-(1-(trifluoromethyl)cyclopropyl)urea], the results for the IC50 on PI3Kγ, on PI3Kβ and on PI3Kδ were > 10 µM, 10 nM and 9 nM, respectively.

For `C[C@H](Nc1ncnc(N)c1C#N)c1nc2cccc(Cl)c2c(=O)n1-c1cccc(NC(=O)NCC(F)(F)F)c1` [Compound 76, (S)-1-(3-(2-(1-((6-amino-5-cyanopyrimidin-4-yl)amino)ethyl)-5-chloro-4-oxoquinazolin-3(4H)-yl)phenyl)-3-(2,2,2-trifluoroethyl)urea], the IC50 is 4.4 µM at PI3Kγ, 5 nM on PI3Kβ and 7 nM at PI3Kδ.

Turning to `CC(C)NC(=O)Nc1cc(-n2c([C@H](C)Nc3ncnc(N)c3C#N)nc3cccc(Cl)c3c2=O)ccc1F` [Compound 77, (S)-1-(5-(2-(1-((6-amino-5-cyanopyrimidin-4-yl)amino)ethyl)-5-chloro-4-oxoquinazolin-3(4H)-yl)-2-fluorophenyl)-3-isopropylurea], the figures for the IC50 on PI3Kγ, at PI3Kβ and at PI3Kδ were 9.5 µM, 420 nM and 27 nM, respectively.

Turning to `CCNC(=O)Nc1cc(-n2c([C@H](C)Nc3ncnc(N)c3C#N)nc3cccc(Cl)c3c2=O)ccc1F` [Compound 78, (S)-1-(5-(2-(1-((6-amino-5-cyanopyrimidin-4-yl)amino)ethyl)-5-chloro-4-oxoquinazolin-3(4H)-yl)-2-fluorophenyl)-3-ethylurea], the IC50 on PI3Kγ stood at 4.9 µM; on PI3Kβ, 16 nM; on PI3Kδ, 32 nM.

`C[C@H](Nc1ncnc(N)c1C#N)c1nc2cccc(Cl)c2c(=O)n1-c1cccc(NC(=O)NS(=O)(=O)C2CCCC2)c1` [Compound 79, (S)—N-((3-(2-(1-((6-amino-5-cyanopyrimidin-4-yl)amino)ethyl)-5-chloro-4-oxoquinazolin-3(4H)-yl)phenyl)carbamoyl)cyclopentanesulfonamide]: the values for the IC50 on PI3Kγ, at PI3Kβ and on PI3Kδ were 0.68 µM, 71 nM and 2 nM, respectively.

For `C[C@H](Nc1ncnc2scnc12)c1nc2cccc(Cl)c2c(=O)n1-c1cccc(NC(=O)NS(=O)(=O)C2CCCC2)c1` [Compound 80, (S)—N-((3-(5-chloro-4-oxo-2-(1-(thiazolo[5,4-d]pyrimidin-7-ylamino)ethyl)quinazolin-3(4H)-yl)phenyl)carbamoyl)cyclopentanesulfonamide], the IC50 at PI3Kγ worked out at 0.25 µM; at PI3Kβ, 120 nM; on PI3Kδ, 0.9 nM.

For `C[C@H](Nc1ncnc(N)c1C#N)c1nc2cccc(Cl)c2c(=O)n1-c1cccc(NC(=O)NS(=O)(=O)C2CC2)c1` [Compound 81, (S)—N-((3-(2-(1-((6-amino-5-cyanopyrimidin-4-yl)amino)ethyl)-5-chloro-4-oxoquinazolin-3(4H)-yl)phenyl)carbamoyl)cyclopropanesulfonamide], the IC50 worked out at 2.8 µM on PI3Kγ, 350 nM on PI3Kβ and 2 nM on PI3Kδ.

Values taken from US10221197B2, “Phosphatidylinositol 3-kinase inhibitors” (Gilead Sciences, Inc., priority 2014, dated 2019).
